IC90 data for 41 compounds are collected here from PubChem BioAssay AID1332 (Southern Research Institute, 2008).

Structures are written as SMILES. ≈ marks a conversion by molar mass, not a printed value. Starred links: 1 amine or outer side, 2 acyl side, 3 side chain; linkers in the order of their positions; H or OH if unused. Positions of bridges follow the written chain, without caps; N, C: chain ends. Non-standard residues stand in square brackets, D forms with d. Residues, ends and D or L forms follow the SMILES beside them. *: point of attachment. X2 = NC1=N[C@@H]([C@H](N[*:1])C(=O)[*:2])C[C@H](O)N1; ΔAla(Z-3-ureido) = NC(=O)N/C=C(\N)C(=O)O; β3hOrn = NCCC[C@H](N)CC(=O)*; Dap = NC[C@H](N)C(=O)O

This assay deals with M. tuberculosis H37Rv growth inhibition. In words: Mycobacterium tuberculosis H37Rv growth inhibition, confirmatory dose response, cytotoxicity (AID 1332).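 Further: bacteria incubated 7 days before adding Alamar blue readout reagent.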
A word on the IC90: it is the concentration at which the effect reaches the 90% level. With `CN(C)CCCN1c2ccccc2Sc2ccc(C(F)(F)F)cc21`, the 90% effect concentration (IC90) was 7.29 µg/mL (≈ 20.7 µM).
Under `NC[C@H]1O[C@H](O[C@H]2[C@H](O)[C@@H](O[C@H]3O[C@H](CO)[C@@H](O)[C@H](N)[C@H]3O)[C@H](N)C[C@@H]2N)[C@H](N)C[C@@H]1O` stands 1.94 µg/mL (≈ 4.16 µM); under `N[C@@H](C(=O)N[C@@H]1C(=O)N2C(C(=O)O)=C(Cl)CS[C@H]12)c1ccccc1`, 11.3 µg/mL (≈ 30.6 µM); under `CCC(C)[C@H]1O[C@]2(C=C[C@@H]1C)C[C@@H]1C[C@@H](C/C=C(\C)C(O[C@H]3C[C@H](OC)C(O[C@H]4C[C@H](OC)[C@@H](O)[C@H](C)O4)[C@H](C)O3)[C@@H](C)/C=C/C=C3\CO[C@@H]4[C@H](O)C(C)=C[C@@H](C(=O)O1)[C@]34O)O2` (stereo partly specified), 2.72 µg/mL (≈ 3.12 µM).
Turning to `CSc1ccc2c(c1)C(N1CCN(C)CC1)Cc1ccccc1S2` (stereo unspecified), the concentration for an effect of 90% (IC90) was 4.56 µg/mL (≈ 12.8 µM).
Take `CCCCCCCCCCCCCCCC[N+](C)(C)CCN(Cc1ccc(OC)cc1)c1ncccn1`: the 90% effect concentration (IC90) was 1.1 µg/mL.
`O=c1[nH]c2ccccc2n1C1CCN(CCCC(c2ccc(F)cc2)c2ccc(F)cc2)CC1`: the IC90 was 2.34 µg/mL (≈ 5.06 µM).
For the compound `CN1CCN(CCCN2c3ccccc3Sc3ccc(Cl)cc32)CC1`, the 90% effect concentration (IC90) is 8.01 µg/mL (≈ 21.4 µM).
As to `CN1C[C@H](CNC(=O)OCc2ccccc2)C[C@@H]2c3cccc4c3c(cn4C)C[C@H]21`, the IC90 was 5.85 µg/mL (≈ 14.5 µM).
As to `CN[C@@H]1[C@H](O[C@H]2[C@H](O[C@@H]3[C@@H](O)[C@H](O)[C@@H](N=C(N)N)[C@H](O)[C@H]3N=C(N)N)O[C@@H](C)[C@]2(O)C=O)O[C@@H](CO)[C@H](O)[C@H]1O`, the concentration for an effect of 90% (IC90) was 1.11 µg/mL (≈ 1.92 µM).
With `CN1CCN(CCCN2c3ccccc3Sc3ccc(C(F)(F)F)cc32)CC1`, the 90% effect concentration (IC90) was 2.77 µg/mL (≈ 6.8 µM).
Under `Nc1nc(=S)c2ncn([C@@H]3O[C@H](CO)[C@@H](O)[C@H]3O)c2[nH]1` stands 11.9 µg/mL (≈ 39.7 µM).
For the compound `C[n+]1cc2c3c(ccc2c2ccc4cc5c(cc4c21)OCO5)OCO3`, the 90% effect concentration (IC90) was 7.62 µg/mL.
For the compound `CC[C@H](CO)NCCN[C@H](CC)CO`, the IC90 is 0.191 µg/mL (≈ 0.935 µM).
As to `C=CCOC(Cn1ccnc1)c1ccc(Cl)cc1Cl` (stereo unspecified), the 90% effect concentration (IC90) was 2 µg/mL (≈ 6.73 µM).
As for `OC(c1cc(C(F)(F)F)nc2c(C(F)(F)F)cccc12)C1CCCCN1` (stereo unspecified), the 90% effect concentration (IC90) was 4.16 µg/mL (≈ 11 µM).
Turning to `Clc1ccc(COC(Cn2ccnc2)c2ccc(Cl)cc2Cl)cc1` (stereo unspecified), the IC90 was 1.98 µg/mL (≈ 5.18 µM).
For `OCCN1CCN(CCCN2c3ccccc3Sc3ccc(C(F)(F)F)cc32)CC1` the value was 7.59 µg/mL (≈ 17.3 µM); for `O=C1CN(/N=C/c2ccc([N+](=O)[O-])o2)C(=O)N1`, 3.92 µg/mL (≈ 16.5 µM).
As for `CC(=O)N1CCN(c2ccc(OC[C@H]3CO[C@](Cn4ccnc4)(c4ccc(Cl)cc4Cl)O3)cc2)CC1`, the concentration for an effect of 90% (IC90) was 2.49 µg/mL (≈ 4.69 µM).
For the compound `CN[C@@H]1C(O[C@H]2O[C@H](CO)[C@@H](N)[C@H](O)[C@H]2O)O[C@H]2C[C@@H](N)[C@@H](O[C@H]3[C@H](O)[C@@H](O)[C@H](N)C[C@@H]3N)OC2[C@@H]1O` (stereo partly specified), the 90% effect concentration (IC90) is 3.57 µg/mL (≈ 6.61 µM).
Under `Cc1cc(NS(=O)(=O)c2ccc(N)cc2)no1` stands 4.34 µg/mL (≈ 17.1 µM).
For `CCCCC(CC)CN=C(N)NC(N)=NCCCCCCN=C(N)NC(N)=NCC(CC)CCCC` (stereo unspecified) the value was 0.729 µg/mL (≈ 1.43 µM).
Consider `CS(=O)(=O)c1ccc([C@@H](O)[C@@H](CF)NC(=O)C(Cl)Cl)cc1`, for which the 90% effect concentration (IC90) is 2.7 µg/mL (≈ 7.53 µM).
Regarding `CNCCCC12CCC(c3ccccc31)c1ccccc12`, the 90% effect concentration (IC90) is 17.9 µg/mL (≈ 64.5 µM).
On to `OCCN1CCN(CC/C=C2/c3ccccc3Sc3ccc(C(F)(F)F)cc32)CC1`, for which the IC90 was 5.46 µg/mL (≈ 12.6 µM).
Consider `CC[C@@]1([C@@H]2O[C@@H]([C@H]3O[C@@](O)(CO)[C@H](C)C[C@@H]3C)C[C@@H]2C)CC[C@H]([C@]2(C)CC[C@]3(C[C@H](O)[C@@H](C)[C@@H]([C@@H](C)[C@@H](OC)[C@H](C)C(=O)O)O3)O2)O1`, for which the IC90 is 4.12 µg/mL (≈ 6.15 µM).
`CCn1cc(C(=O)O)c(=O)c2cc(F)c(N3CCNC(C)C3)c(F)c21` (stereo unspecified): the IC90 was 0.258 µg/mL (≈ 0.734 µM).
For `CNCCC=C1c2ccccc2C=Cc2ccccc21`, the IC90 was 17.1 µg/mL (≈ 65.3 µM).
`CCCCc1oc2ccccc2c1C(=O)c1cc(I)c(OCCN(CC)CC)c(I)c1`: the concentration for an effect of 90% (IC90) is 6.3 µg/mL (≈ 9.76 µM).
With `Cc1nnc(NS(=O)(=O)c2ccc(N)cc2)s1`, the 90% effect concentration (IC90) was 2.6 µg/mL (≈ 9.61 µM).
Take `O=c1c2ccccc2[se]n1-c1ccccc1`: the IC90 is 2.16 µg/mL (≈ 7.87 µM).
Consider `CN(C)/N=N/c1nc[nH]c1C(N)=O`, for which the IC90 was 0.639 µg/mL (≈ 3.51 µM).
In the case of `CC1=CC(=O)c2ccccc2C1=O`, the IC90 is 5.38 µg/mL (≈ 31.2 µM).
For the compound `Fc1ccc(C(c2ccc(F)cc2)N2CCN(C/C=C/c3ccccc3)CC2)cc1`, the 90% effect concentration (IC90) was 6.62 µg/mL (≈ 16.4 µM).
As to `Cc1c(OCC(F)(F)F)ccnc1CS(=O)c1nc2ccccc2[nH]1` (stereo unspecified), the concentration for an effect of 90% (IC90) was 10.1 µg/mL (≈ 27.5 µM).
For the compound `Nc1ccc(S(=O)(=O)Nc2nccs2)cc1`, the 90% effect concentration (IC90) is 1.3 µg/mL (≈ 5.08 µM).
Under `CC(C)N1CCN(c2ccc(OC[C@H]3CO[C@](Cn4cncn4)(c4ccc(Cl)cc4Cl)O3)cc2)CC1` stands 7.54 µg/mL (≈ 14.2 µM); under `NC(=NCCCCCCN=C(N)/N=C(\N)Nc1ccc(Cl)cc1)/N=C(\N)Nc1ccc(Cl)cc1`, 0.295 µg/mL (≈ 0.584 µM); under `COc1cccc2c1C(=O)c1c(O)c3c(c(O)c1C2=O)C[C@@](O)(C(=O)CO)C[C@@H]3O[C@H]1C[C@H](N)[C@H](O)[C@H](C)O1`, 2.6 µg/mL (≈ 4.79 µM).
`NCCC[C@H](N)CC(=O)N[C@H]1CNC(=O)[C@H]([C@H]2C[C@H](O)NC(N)=N2)NC(=O)/C(=C/NC(N)=O)NC(=O)[C@H](CO)NC(=O)[C@H](CO)NC1=O` (β3hOrn-[Dap]SS[ΔAla(Z-3-ureido)][X2]; lactam 1-C): the IC90 was 0.069 µg/mL (≈ 0.101 µM).
